Data on two compounds can be found in patent US20110217391A1, “MATRIX METALLOPROTEASE (MMP) PRODUCTION INHIBITOR” (FUJIFILM CORPORATION, priority 2010, published 2011).

Data set [1] concerns Pellicle-derived human normal keratinocytes. The following applies: 48 h. The protocol: Pellicle-derived human normal keratinocytes were inoculated into a 10% (v/v) FBS-containing MEM medium on a 12-well culture plate, at a cell density of 1.9×10^4 cells/well. Thereafter, the cells were pre-cultured for 24 hours according to an ordinary method. […] After completion of the culture, the cells were washed with PBS, and a survival test was then carried out according to a common method using MTT. Specifically, a 0.5 mg/mL MTT solution was added to the culture plate, resulting in a concentration of 500 μL/well, and it was then incubated in an incubator for 2 hours. Thereafter, 1.5 mL of dimethyl sulfoxide was added thereto, and the absorbance at a wavelength of 570 nm was then measured. The obtained absorbance was used as an indicator for the number of surviving cells. The number of surviving cells obtained in the case of not adding an evaluation sample was defined as 100, and the cell survival percentage (%) obtained in the case of adding an evaluation sample was obtained.

Data set [2] has as its system matrix metalloprotease 9. The data set can be described thus: Suppression of production of matrix metalloprotease 9 on epidermis, TGF β1 or β2 induction, ELISA of culture supernatant. Type of data set: cell-based, human. As to conditions: keratinocytes, TGF β1 or β2 5 ng/ml, 0.45 μg/ml, 48 hours. How it is done:
Thereafter, the medium was exchanged with a test medium which had been prepared by adding TGF (transforming growth factor) β1 or β2 which is known to be released as a matrix metalloprotease 9 production promoting factor from cells upon UV irradiation, to a 1% (v/v) FBS-containing MEM medium to a final concentration of 5 ng/ml, so as to produce a matrix metalloprotease 9 induction test system. […] Specifically, the concentration of a grape extract was set at 100 μg/ml, and the concentration of a Salacia plant extract (the present invention) was set at 100 μg/ml. These test substances were each added to a test medium, and the medium was then exchanged with a fresh one. Thereafter, culture was carried out for 48 hours. After completion of the culture, a culture supernatant was recovered. The recovered supernatant was assayed according to the ELISA method with Matrix Metalloprotease-9, Human, Assay (GE Healthcare, RPN2614). Measurement was carried out in accordance with protocols provided by the distributer, and the value at a wavelength of 630 nm was measured using a wavelength-tunable microplate reader, Sunrise Rainbow Thermo (SUNRISE) and was then quantified. […]

Read-outs that look alike come from different tables or passages of the source. A value given as a limit tells only on which side of the number the result lay.

For `CC1=C(/C=C/C(C)=C/C=C/C(C)=C/C(=O)O)C(C)(C)CCC1` [retinoic acid], the cell survival percentage in data set [1] (0.15 μg/ml) is on record as not below 70%.

For `C[C@H]1[C@H](C)CC[C@]2(C(=O)O)CC[C@]3(C)C(=CC[C@@H]4[C@@]5(C)CC[C@H](O)C(C)(C)[C@@H]5CC[C@]43C)[C@H]12` [ursolic acid], the cell survival percentage in data set [1] (0.45 μg/ml) is on record as not below 70%. In addition, the “effect of suppressing the production of matrix metalloprotease 9 (MMP9 protein expression level)” value in data set [2] is listed as “did not have the effect of suppressing the production of matrix metalloprotease 9”.
